Data: patent publication US10011592B2, “Polycyclic inhibitor of anaplastic lymphoma kinase” (XUANZHU PHARMA CO., LTD., priority 2014, dated 2018)
pIC50: −log10 of the molar value. Where two headings read alike, the source gives them in different places.

What was measured:
[1] = target: T1, ALK kinase (Homo sapiens, UniProt Q9UM73); experiment: In vitro ALK kinase inhibitory activity by Caliper Mobility Shift assay; type: biochemical; conditions: Experimental Example 2, 28° C., 1 h, read-out: ALK enzyme-inhibiting activity IC50
Description: Experimental method: Measurement of ALK kinase inhibitory activity by Caliper Mobility Shift assay.
1. Preparation of 1-Fold Kinase Buffer
2. Preparation of Stop Solution
3. Preparation of 5-Fold Test Compound Solutions:
Preparation of a DMSO stock solution of test compound: a suitable amount of compound (please see the following table for sample weight) was weighed, and dissolved by adding a suitable amount of DMSO. The resultant mixture was mixed homogeneously, for later usage.
Said DMSO stock solution of test compound was diluted with DMSO to a solution at a concentration of 50 μM, which was used as initial solution. Said initial solution was subjected to 4-fold gradient dilution with DMSO, and the solution at each concentration was 10-fold diluted with 1-fold kinase buffer to prepare a 5-fold test compound solution.
4. Preparation of Other Reagents:
2.5×ALK kinase solution and 2.5× polypeptide solution were prepared by using the 1-fold kinase buffer, for later usage.
1) 5 μL 5-fold test compound solution and 10 μL 2.5-fold kinase solution were added to the corresponding wells in a 384-well plate, and incubated at room temperature for 10 min.
The enzymatic reaction was started, and the incubation was performed at 28° C. for 1 h.
To the corresponding wells, 25 μL stop solution was added to stop the reaction. Data was read by Caliper device, and the inhibition rate was calculated by the data,
Inhibition rate (%)=(maximal value-sample value)/(maximal value-minimal value)×100, wherein XLFIT software was used in curve fitting to get IC50 value.
Maximal value: positive control without addition of test compound; minimal value: negative control without addition of enzyme.

[2] = tested on: NCI-H3122; experiment: In vitro cell activity, NCI-H3122, MTS detection; type: cell-based; conditions: Homo sapiens, read-out: cell-inhibiting activity IC50, NCI-H3122
Method: (§1) Cells were digested with pancreatin. After centrifugation at 1000 rpm for 4 min, the supernatant was removed. […] The cell suspension (90 μL) was seeded to a 96-well plate to obtain a final cell density of 3000 cells/well; and then cultured in a 5% CO2, 37° C. incubator for 24 h.
(§2) Preparation of test compound solutions: a suitable amount of test compound (please see the following table for sample weight) was weighed, and diluted gradiently with DMSO to prepare a series of stock solutions of different concentrations (1000×test compound solution). Each of said stock solutions was further diluted by 100 folds with medium to obtain a 10×test compound solution.
(§3) Solvent control: 0.1% DMSO.
(§4) Cell control: cell seeding only, with no addition of compound.
(§5) Blank control: medium, for zero setting in an instrument.
(§6) (3.3) The 96-well plate was cultured in a 37° C., 5% CO2 incubator for 72h.
(§7) (1) The reagents in CellTiter 96®AQueous One Solution Cell Proliferation Assay (MTS) were placed at room temperature for 90 min.
(§8) (2) To each test well in the 96-well plate, 20 μL CellTiter 96® A Queous One Solution reagent was added.
(§9) (3) The 96-well plate was cultured in a 37° C., 5% CO2 incubator for 40 min.
(§10) (4) The results were read by Microplate Reader at 490 nm.
(§11) IC50 calculation: cell survival rate (%)=(ODsample value−ODblank value)/(ODmaximal value−ODblank value)×100, wherein Graph prisim software is used in curve fitting to get IC50 value.
(§12) ODmaximal value: cell control with the addition of solvent and no compound, ODblank value: blank control value.

[3] = tested on: Karpas-299; experiment: In vitro cell activity, Karpas-299, MTS detection; type: cell-based; conditions: Homo sapiens, read-out: cell-inhibiting activity IC50, Karpas-299
Method: as §1, §2, §3, §4, §5, §6, §7, §8, §9, §10, §11, §12

[4] = tested on: NCI-H2228; experiment: In vitro cell activity, NCI-H2228, CTG detection; type: cell-based; conditions: Homo sapiens, read-out: cell-inhibiting activity IC50, NCI-H2228
Method: Cells were digested with pancreatin. After centrifugation at 1000 rpm for 4 min, the supernatant was removed. […] The cell suspension (100 μL) was seeded to a 96-well plate to obtain a final cell density of 2000 cells/well.
(3.1) Preparation of test compound solutions: a suitable amount of test compound (please see the following table for sample weight) was weighed, and dissolved by adding a suitable amount of DMSO. The resultant mixture was mixed homogeneously, and diluted gradiently with DMSO to prepare a series of solutions of different concentrations, for later usage.
Solvent control: 0.5% DMSO.
as §4, §5
(3.3) The 96-well plate was cultured in a 37° C., 5% CO2 incubator for 96 h.
(1) 80 μL medium was removed from each well in the 96-well plate, and the plate was placed at room temperature for 30 min.
(2) 60 μL CellTiter-Glo® reagent was added to each test well in the 96-well plate.
(3) The 96-well plate was shaken for 2 min in dark to mix the mixture homogeneously in a microplate shaker, so as to lyse the cells.
(4) The 96-well plate was incubated in dark at room temperature for 10 min, to keep the light signal value stable.
(5) The results were read by Microplate Reader in luminescence mode.
IC50 calculation: cell inhibition rate (%)=(ODmaximal value−ODcompound)/(ODmaximal value−ODblank value)×100, wherein Graph prisim software is used in curve fitting to get IC50 value.
ODmaximal value: cell control with the addition of solvent and no compound, ODblank value: medium blank control.

[5] = target: T1, ALK kinase; experiment: In vitro ALK kinase-inhibiting activity (SA-XL665/tyrosine kinase antibody, 665 nm/615 nm read); type: biochemical; conditions: Experimental Example 1; 25° C., 30 min enzymatic reaction; read-out: ALK enzyme-inhibiting activity IC50
Method: Preparation of ALK Kinase Buffer:
(§13) The resultant mixture was mixed homogeneously, for later usage.
as §13
Preparation of a stock solution of compound at a concentration of 1 mM: a suitable amount of compound (please see the following table for sample weight) was weighed, and dissolved by adding a suitable amount of DMSO. The resultant mixture was mixed homogeneously, for later usage.
Each of the 1 mM stock solutions was diluted with DMSO to a 200 μM solution, which was used as initial solution. Each of said initial solutions was 3-fold diluted with DMSO to prepare a series of solutions of different concentrations, and then the solution of each concentration was diluted with the ALK kinase buffer by 80 folds to prepare a 2.5×test compound solution.
Preparation of Other Reagents:
5×ALK kinase solution, 5×substrate solution, and 5×ATP solution, were prepared by using the ALK kinase buffer, for later usage.
1) 4 μL 2.5× test compound solution and 2 μL 5×ALK kinase solution were added to the corresponding wells in a 384-well plate, respectively, and incubated at 25° C. for 10 min.
2) To the corresponding wells, 2 μL 5× substrate solution and 2 μL 5×ATP solution were further added to start the enzymatic reaction, and incubation was performed at 25° C. for 30 min.
Detection buffer was used to prepare SA-XL665 at a desired concentration, which was then mixed homogeneously with the same volume of tyrosine kinase antibody. To the corresponding wells, 10 μL said antibody solution was added, and the reaction was stopped. Incubation was performed at 25° C. for 1 h.
IC50: Inhibition rate (%)=(maximal value-sample value)/(maximal value-minimal value)×100, wherein Graph prism software was used in curve fitting to get IC50 value.
Maximal value: positive control without addition of compound; minimal value: negative control without addition of enzyme.

[6] = Pharmacokinetics in rat; type: in vivo; conditions: plasma, iv 2 mg/kg, po 5 mg/kg
Method: Experimental Example 6 Assay on Pharmacokinetics of the Compounds Provided in Examples of the Invention in Rat
Test compounds: Compound 4, lab-made, the chemical name and preparation method of which can be found in the preparation example.
Internal standard: Alectinib, lab-made (prepared by reference to the method in Patent CN102459172A).
0.1% Tween 80+2% HPC: HPC (hydroxypropyl cellulose) (20 g) was weighed, and was added slowly to purified water (1000 mL) under stirring; Tween 80 (1 mL) was then added, and the resultant mixture was stirred until a clear solution was obtained, i.e. a blank solvent of 0.1% Tween 80+2% HPC.
A suitable amount of test compound (please see the following table for sample weight) was weighed, and said prepared solvent was added. The resultant mixture was placed in a tissue grinder, and was dispersed homogeneously at a rotation speed of 1000 r/min to get a solution for intragastric administration. […]
Protein precipitation method: to 30 μL plasma, 200 μL internal standard (acetonitrile solution containing 50 ng/mL Alectinib) was added; the resultant mixture was vortexed at 1000 r/min for 10 min, and then centrifuged at 4000 r/min for 20 min; to 100 μL supernatant, 100 μL water was added; the resultant mixture was mixed homogeneously under vortexing and analyzed by LC-MS/MS.

T1 sequence (Q9UM73 19-1620): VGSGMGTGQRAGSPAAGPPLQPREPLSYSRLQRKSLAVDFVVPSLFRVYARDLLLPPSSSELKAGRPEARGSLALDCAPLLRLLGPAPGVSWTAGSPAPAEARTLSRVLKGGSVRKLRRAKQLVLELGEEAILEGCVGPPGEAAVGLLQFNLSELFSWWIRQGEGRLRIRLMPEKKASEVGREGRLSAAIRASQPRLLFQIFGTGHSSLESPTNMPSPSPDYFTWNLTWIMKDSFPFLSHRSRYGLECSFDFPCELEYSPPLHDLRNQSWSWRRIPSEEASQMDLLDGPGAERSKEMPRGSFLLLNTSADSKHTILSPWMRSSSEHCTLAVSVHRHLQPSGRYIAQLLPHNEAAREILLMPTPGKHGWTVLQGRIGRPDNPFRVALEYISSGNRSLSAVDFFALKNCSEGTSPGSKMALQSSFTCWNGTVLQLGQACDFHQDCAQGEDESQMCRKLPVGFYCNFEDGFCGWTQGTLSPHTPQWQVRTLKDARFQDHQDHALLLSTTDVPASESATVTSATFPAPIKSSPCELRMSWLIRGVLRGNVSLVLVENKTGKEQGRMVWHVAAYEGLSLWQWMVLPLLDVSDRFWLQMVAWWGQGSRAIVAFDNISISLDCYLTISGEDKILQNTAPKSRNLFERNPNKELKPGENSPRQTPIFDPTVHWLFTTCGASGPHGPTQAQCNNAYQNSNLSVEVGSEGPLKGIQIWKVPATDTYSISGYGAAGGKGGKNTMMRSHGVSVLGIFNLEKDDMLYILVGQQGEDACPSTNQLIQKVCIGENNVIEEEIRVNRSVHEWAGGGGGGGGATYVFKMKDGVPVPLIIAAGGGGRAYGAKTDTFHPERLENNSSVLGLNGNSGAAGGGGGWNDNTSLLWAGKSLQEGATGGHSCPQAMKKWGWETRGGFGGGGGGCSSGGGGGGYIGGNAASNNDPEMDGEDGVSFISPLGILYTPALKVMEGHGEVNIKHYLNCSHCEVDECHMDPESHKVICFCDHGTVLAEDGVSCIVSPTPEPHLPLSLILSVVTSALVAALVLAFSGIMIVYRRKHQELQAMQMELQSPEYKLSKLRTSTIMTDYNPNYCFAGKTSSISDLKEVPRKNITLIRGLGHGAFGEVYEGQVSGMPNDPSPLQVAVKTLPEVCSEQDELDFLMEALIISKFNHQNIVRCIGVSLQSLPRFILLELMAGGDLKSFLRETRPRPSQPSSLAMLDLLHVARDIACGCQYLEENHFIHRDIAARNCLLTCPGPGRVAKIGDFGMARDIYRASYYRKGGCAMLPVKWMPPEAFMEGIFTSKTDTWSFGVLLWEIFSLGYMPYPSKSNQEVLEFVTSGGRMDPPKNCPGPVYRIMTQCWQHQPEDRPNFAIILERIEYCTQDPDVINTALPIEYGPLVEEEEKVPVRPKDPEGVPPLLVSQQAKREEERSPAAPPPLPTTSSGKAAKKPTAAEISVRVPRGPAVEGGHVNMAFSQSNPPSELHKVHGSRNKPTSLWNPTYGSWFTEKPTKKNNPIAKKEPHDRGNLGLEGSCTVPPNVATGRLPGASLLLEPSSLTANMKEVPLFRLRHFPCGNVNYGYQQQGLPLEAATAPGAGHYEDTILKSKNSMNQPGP

Cc1cc(Nc2ncc(Cl)c(Nc3ccccc3S(=O)(=O)C(C)C)n2)c2c(c1C1=CCNCC1)CCCO2 [Compound 8, 5-chloro-N^4-(2-(isopropylsulfonyl)phenyl)-N^2-(6-methyl-5-(1,2,3,6-tetrahydropyridine-4-yl)chroman-8-yl)pyrimidine-2,4-diamine]
pIC50 [1]: 9.27
pIC50 ([2]; NCI-H3122, 72 h, MTS): 7.79
pIC50 ([3]; KARPAS-299, 72 h, MTS): 8.29

Cc1cc(Nc2ncc(Cl)c(Nc3ccccc3S(=O)(=O)C(C)C)n2)c(OC(C)C)cc1C1CCNCC1 [Ceritinib, reference compound]
pIC50 ([4]; NCI-H2228, 96 h): 7.32
pIC50 ([2]; NCI-H3122, 72 h): 6.86
pIC50 ([3]; KARPAS-299, 72 h): 7.52

Cc1cc(Nc2ncc(Cl)c(Nc3ccccc3S(=O)(=O)N(C)C)n2)c2c(c1C1CCNCC1)OCO2 [Compound 2, 2-((5-chloro-2-((6-methyl-7-(piperidin-4-yl)benzol[d][1,3]dioxol-4-yl)amino)pyrimidin-4-yl)amino)-N,N-dimethylbenzenesulfonamide]
pIC50 ([4]; NCI-H2228, 96 h, CTG): 8.26
pIC50 ([2]; NCI-H3122, 72 h, MTS): 8.38
pIC50 [5]: 8.77
pIC50 ([3]; KARPAS-299, 72 h, MTS): 8.12

Cc1cc(Nc2ncc(Cl)c(Nc3ccccc3S(=O)(=O)C(C)C)n2)c2c(c1C1CCNCC1)OCO2 [Compound 1, 5-chloro-N^4-(2-(isopropylsulfonyl)phenyl)-N^2-(6-methyl-7-(piperidin-4-yl)benzo[d][1,3]dioxol-4-yl)pyrimidine-2,4-diamine]
pIC50 ([4]; NCI-H2228, 96 h, CTG): 8.49
pIC50 ([2]; NCI-H3122, 72 h, MTS): 7.96
pIC50 [5]: 9.70
pIC50 ([3]; KARPAS-299, 72 h, MTS): 9.15

Cc1cc(Nc2ncc(Cl)c(Nc3ccccc3S(=O)(=O)C(C)C)n2)c2c(c1C1CCNCC1)OCCO2 [Compound 4, 5-chloro-N^4-(2-(isopropylsulfonyl)phenyl)-N^2-(7-methyl-8-(piperidin-4-yl)-2,3-dihydrobenzo[b][1,4]dioxin-5-yl)pyrimidine-2,4-diamine]
bioavailability [6]: 30 to 50%
pIC50 ([4]; NCI-H2228, 96 h, CTG): 7.82
pIC50 ([2]; NCI-H3122, 72 h, MTS): 6.88
pIC50 [5]: 9.05
pIC50 ([3]; KARPAS-299, 72 h, MTS): 9.15

Cc1cc(Nc2ncc(Cl)c(Nc3ccccc3S(=O)(=O)C(C)C)n2)c2c(c1C1CNC1)OCCO2 [Compound 6, N^2-(8-(azetidin-3-yl)-7-methyl-2,3-dihydrobenzo[b][1,4]dioxin-5-yl)-5-chloro-N^4-(2-(isopropylsulfonyl)phenyl)pyrimidine-2,4-diamine]
pIC50 [1]: 9.35
pIC50 ([2]; NCI-H3122, 72 h, MTS): 7.21
pIC50 ([3]; KARPAS-299, 72 h, MTS): 8.00

Cc1cc(Nc2ncc(Cl)c(Nc3ccccc3S(=O)(=O)C(C)C)n2)c2c(c1C1CCNC1)OCCO2 (stereo not drawn) [Compound 5, 5-chloro-N^4-(2-(isopropylsulfonyl)phenyl)-N^2-(7-methyl-8-(pyrrolidin-3-yl)-2,3-dihydrobenzo[b][1,4]dioxin-5-yl)pyrimidine-2,4-diamine]
pIC50 [1]: 9.44
pIC50 ([4]; NCI-H2228, 96 h, CTG): 8.13
pIC50 ([2]; NCI-H3122, 72 h, MTS): 7.60
pIC50 ([3]; KARPAS-299, 72 h, MTS): 8.27

Cc1cc(Nc2ncc(Cl)c(Nc3ccccc3S(=O)(=O)N(C)C)n2)c2c(c1C1CCNCC1)OCCO2 [Compound 3, 2-((5-chloro-2-((7-methyl-8-(piperidin-4-yl)-2,3-dihydrobenzo[b][1,4]dioxin-5-yl)amino)pyrimidin-4-yl)amino)-N,N-dimethylbenzenesulfonamide]
pIC50 ([4]; NCI-H2228, 96 h, CTG): 8.77
pIC50 ([2]; NCI-H3122, 72 h, MTS): 7.36
pIC50 [5]: 9.22
pIC50 ([3]; KARPAS-299, 72 h, MTS): 9.79
